Read-outs that look alike come from different tables or passages of the source.

The results in this text go back to patent US12215090B2, “Agents and methods for treating dysproliferative diseases” (Memorial Sloan-kettering Cancer Center, priority 2018, dated 2025).

Common to all, as to format: cell-based
Experiment [1] concerns DHL6 cells. The experiment can be described thus: cell viability assay, DHL6 cells. From the text: (§1) FIGS. 1A, 1B, 1C, and 1D show the activity of compounds of the invention, compared to (−)-CR31B and (+)-CR31B in cell viability assays using (A) DHL6 cells, (B) Jurkat cells, (C) DoHH2 cells, and (D) LY8 cells. […] The following table reports the IC50s (in nM) for each lymphoma and leukemia cell type.

Experiment [2] relates to Jurkat cells. Kind of experiment: cell viability assay, Jurkat cells.
Excerpt: as §1

The test system of experiment [3] is DoHH2 cells. The experiment can be described thus: cell viability assay, DoHH2 cells.
Excerpt: as §1

Experiment [4] concerns LY8 cells. The experiment can be described thus: cell viability assay, LY8 cells.
Excerpt: as §1

For experiment [5], the system named is DHL8 cells. The experiment can be described thus: cell viability assay, DHL8 cells.
Excerpt: as §1

Experiment [6] deals with KOPTK1 cells, a murine T-cell ALL cell line. Kind of experiment: cell viability assay, KOPTK1 cells. To be noted: Mus musculus.
The test system of experiment [7] is MOLT-4 (human acute lymphoblastic leukemia [ALL]). The experiment can be described thus: cell viability assay, MOLT-4 cancer cells. The note with it: MOLT-4 T-ALL cells, 72 hours of exposure, cell titer glow reagent. The protocol: (§2) The biological activity of compounds of the invention was evaluated in several assays. In a cell viability assay using cancer and normal cells lines MOLT-4 (human acute lymphoblastic leukemia [ALL]) and MRC-5 (human lung fibroblast), respectively, cell viability was assessed after 72 hours of exposure to a range of concentrations, using cell titer glow reagent from Promega to assess viability.

Experiment [8] has as its system MRC-5 (human lung fibroblast). The experiment can be described thus: cell viability assay, MRC-5 normal cells. The note with it: MRC5, MRC-5 non-cancer cells, 72 hours of exposure, cell titer glow reagent. The protocol: as §2
On the technique in general: In ATP-based viability assays light output follows the ATP content of the culture.

With (−)-CR31B [reference compound], the IC50 was 7.62 nM in experiment [1]; 6.42 nM in experiment [2]; 7.3 nM in experiment [3]; 5.93 nM in experiment [4]; 7.21 nM in experiment [5].

`COc1cc(OC)c2c(c1)OC1(c3ccc(O)cc3)C(c3ccccc3)C(C(N)=O)C(O)C21O` (racemic) [Racemic mixture of Compounds 8 and 9, 1,8b-dihydroxy-3a-(4-hydroxyphenyl)-6,8-dimethoxy-3-phenyl-2,3-dihydro-1H-cyclopenta[b]benzofuran-2-carboxamide]: the concentration for half-maximal inhibition (IC50) in experiment [6] came to 10 nM; in experiment [1], 947 nM; in experiment [2] (Homo sapiens) it was 1730 nM; in experiment [3] (Homo sapiens, DOHH-2) it was 987 nM; in experiment [4] it was 2910 nM; in experiment [5], 1040 nM.

(+)-CR31B [reference compound]: the IC50 was roughly 4300 nM in experiment [1]; roughly 3110 nM in experiment [2]; 2530 nM in experiment [3]; 16500 nM in experiment [4]; 7480 nM in experiment [5].

Consider `CONC(=O)[C@H]1[C@@H](O)[C@@]2(O)c3c(OC)cc(OC)cc3O[C@@]2(c2ccc(O)cc2)[C@@H]1c1ccccc1` [Compound 1, (1R,2R,3S,3aR,8bS)-1,8b-dihydroxy-3a-(4-hydroxyphenyl)-N,6,8-trimethoxy-3-phenyl-2,3-dihydro-1Hcyclopenta[b]benzofuran-2-carboxamide], for which the IC50 is 5.3 nM in experiment [7]; greater than 1000 nM in experiment [8]; 50 nM in experiment [6]; 51.5 nM in experiment [1]; 63 nM in experiment [2] (Homo sapiens); 36.7 nM in experiment [3] (Homo sapiens, DOHH-2). Also, the IC50 in experiment [4] turned out to be 38.9 nM; in experiment [5], 74.9 nM.

For orientation: IC50 means the midpoint of a concentration-inhibition curve. Read a low IC50 as greater potency in that assay.
